“Also recorded” adds a separate entry of the source.
Assays:
C2C12 myotubes = experiment: Extracellular peptide or insulin treatment of C2C12 myotubes, western blot of Akt signaling; assay type: cell-based, mouse
Procedure: The prior cell-based and in vitro experiments are relevant to […] Aβ effects. To determine the specificity of Akt inhibition by […] Aβ, C2C12 myotubes were cultured, and treated with extracellular Aβ25-35, Aβ35-25, Aβ1-42 and Aβ42-1 for 24 hours. In the last 30 minutes before harvest, insulin was added (0.1 μg/ml). While p-Akt (Ser473) and p-GSK-3 α/β levels were increased by insulin treatment (FIG. 9C, lane 2 vs. 1), they were not affected by any of the Aβ treatments. […] There were also no significant changes in p-Akt (Ser473) levels (data not shown). […] PDK itself is subject to phosphorylation (e.g., at Ser 241) and several authors feel that it is constitutively phosphorylated and thus ‘primed’ (Casamayor, A., Morrice, N. A., and Alessi, D. R., 1999, Phosphorylation of Ser-241 is essential for the activity of 3-phosphoinositide-dependent protein kinase-1: identification of five sites of phosphorylation in vivo, Biochem J 342 (Pt 2):287-292). The experiments described herein indicate that p-PDK levels are constitutively high in C2C12 cells and not boosted further by insulin action (FIG. 9E, top). p-PDK levels were not modulated by extracellular (FIG. 9E lower panel) or intracellular Aβ expression (not shown).
In FIG. 9C C2C12 myotubes were bath exposed to AP25-35, reverse AP35-25, AP1-42 and reverse Aβ42-1 peptides for 24 hours before treatment with insulin (0.1 μg/ml, 15 min) Whole cell extracts were subjected to Western analysis for p-Akt (Ser473) (Akt activation) and total Akt levels (top) as well as for endogenous levels of pGSK-3a/p, indicative of Akt activity, and total GSK-3β (lower two blots). […] The increase was not affected by pre-treatment with extracellular AR.
In FIG. 9D C2C12 myotube cultures were exposed to increasing doses of A[i1-42 (0, 10 and 25 μM) for 2 hours before treatment with insulin (0, 20, 100 and 500 ng/ml) for 15 min Harvested cell extracts were used for western blot for p-Akt (Thr308).

[1] = tested on: PDK-dependent activation of Akt1; experiment: In vitro PDK-dependent Akt1 phosphorylation and activity assay (immunoprecipitated PDK1 and Akt1, GSK-3 fusion protein substrate); assay type: biochemical, human (SH-SY5Y, HEK293), mouse (C2C12); details: for relative effect of amyloid preparations (monomer, ADDL, fibril) on PDK-dependent Akt activation: comparison of preparations, SH-SY5Y-derived kinases; for effect on PDK-stimulated Akt activity / Akt phosphorylation: 10 μM
Procedure: Akt1 was immunoprecipitated (IP) overnight from 100 μg of the human brain sample or from C2C12 myotubes infected with adenovirus encoding Aβ using a 1:100 dilution of goat anti-Akt1 antibody. The following morning, 40 μl of a 50% slurry of protein G-Agarose (PGA) (Roche Applied Science) was added for an additional 1.5 hours. The beads were washed twice with wash buffer [1× phosphate buffered saline (PBS), 0.5% NP-40, 0.1 mM Na3VO4] and twice with kinase buffer [25 mM Tris (pH 7.5), 2 mM DTT, 0.1 mM Na3VO4, 10 mM MgCl2]. ATP (200 μM) and GSK-3 fusion protein (1 μg/50 μl) were added in the presence of kinase buffer, and the final reaction (50 μl) was incubated 30 minutes at 30° C. The reaction was stopped by adding 40 μl of Laemmli buffer. 20 μl of sample was loaded onto a 10% polyacrylamide gel for fractionation and western detection development.
Immunoprecipitates (IPs) of PDK1 and Akt were prepared from 100 μg of either SH-SY5Y, C2C12 myotubes or from insulin-treated cultures. ATP (200 μM), GSK-3 fusion protein (1 μg/50 μl) and kinase buffer were added to the reaction. Various Aβ peptides were finally added at 0.01, 0.1, 1, 5, 10, 20 μM. Akt activity level was otherwise determined as above.

[2] = target: T1, SGK (serum/glucocorticoid regulated kinase) activated by PDK (Mus musculus, UniProt Q9Z2A0); experiment: PDK-stimulated SGK activity, in vitro kinase assay; assay type: biochemical; details: 10 μM
T1 construct: Stimulated PDK was IP from insulin-treated C2C12 myotubes; endogenous in cells; host or cells: PDK from insulin-treated C2C12 myotubes
T1 sequence (Q9Z2A0 1-559): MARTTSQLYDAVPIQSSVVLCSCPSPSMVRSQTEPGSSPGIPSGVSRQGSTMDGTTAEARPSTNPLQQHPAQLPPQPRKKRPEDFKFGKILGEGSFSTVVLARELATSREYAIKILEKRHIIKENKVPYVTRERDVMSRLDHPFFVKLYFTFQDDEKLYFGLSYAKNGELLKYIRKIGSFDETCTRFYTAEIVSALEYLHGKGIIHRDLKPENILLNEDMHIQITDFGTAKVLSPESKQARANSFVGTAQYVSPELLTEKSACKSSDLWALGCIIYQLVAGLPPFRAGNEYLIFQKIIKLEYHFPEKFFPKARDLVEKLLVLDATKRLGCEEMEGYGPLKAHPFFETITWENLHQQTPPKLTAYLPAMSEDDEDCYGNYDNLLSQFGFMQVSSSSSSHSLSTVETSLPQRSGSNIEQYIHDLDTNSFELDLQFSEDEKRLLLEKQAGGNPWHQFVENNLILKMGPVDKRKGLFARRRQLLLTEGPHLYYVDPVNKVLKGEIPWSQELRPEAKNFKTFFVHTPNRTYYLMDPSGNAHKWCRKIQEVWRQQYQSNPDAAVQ
Text: Another kinase, termed SGK (serum/glucocorticoid regulated kinase), is also activated by PDK. Similar to Akt, SGK has a PH domain and phosphorylates GSK-3 α/β (Kobayashi, T., Deak, M., Morrice, N., and Cohen, P., 1999, Characterization of the structure and regulation of two novel isoforms of serum- and glucocorticoid-induced protein kinase, Biochem J 344 Pt 1:189-197, and Tessier, M., and Woodgett, J. R., 2006, Serum and glucocorticoid-regulated protein kinases: variations on a theme, J Cell Biochem 98:1391-1407). If Aβ inhibits PH-mediated activations of Akt independent of PIP3, it is predicted to affect this mechanism too. Indeed, in FIG. 7D, ADDL-containing Aβ preparations inhibited PDK-stimulated SGK activity (lane 7 vs. 6 and 5). […] This enhanced activity was not however, interrupted by Aβ (10 μM, lane 4 vs. 3). Lastly, another kinase that converges to phosphorylate GSK, PKA (Grimes, C. A., and Jope, R. S., 2001, The multifaceted roles of glycogen synthase kinase 3beta in cellular signaling, Prog Neurobiol 65:391-426; Li, M., Wang, X., Meintzer, M. K., Laessig, T., Birnbaum, M. J., and Heidenreich, K. A., 2000, Cyclic AMP promotes neuronal survival by phosphorylation of glycogen synthase kinase 3beta, Mol Cell Biol 20:9356-9363), was tested. […] Thus, the mechanism of Aβ inhibition of Akt activation is specific to PDK-like kinases. […]

Aβ25-35: fragment consisting of residues 25-35 of Aβ (GSNKGAIIGLM; Amyloid-beta protein 42; UniProt P05067 696-706, looked up, fragment)
p-Akt (Ser473) and p-GSK-3 α/β levels after insulin (C2C12 myotubes; extracellular peptide 24 hours, then insulin 0.1 μg/ml): not affected

CCCCCCCCCCCCCCCC(=O)OC[C@H](COP(=O)(O)OC1[C@H](O)[C@H](OP(=O)(O)O)C(OP(=O)(O)O)[C@H](OP(=O)(O)O)[C@H]1O)OC(=O)CCCCCCCCCCCCCCC (stereo partly shown) [PIP3, phosphatidylinositol-tris-3,4,5-phosphate, dipalmitoyl]
PDK-dependent Akt1 phosphorylation and activity ([1]; 50 nM added, PP2A-treated Akt): extra increase

Fibrillar Aβ: fibrillar Aβ42 made in 10 mM HCl, 37° C., 24 hr
relative effect of amyloid preparations (monomer, ADDL, fibril) on PDK-dependent Akt activation ([1]; listed as fibril-containing preparations): little toxicity; also recorded: least active
relative effect of amyloid preparations (monomer, ADDL, fibril) on PDK-dependent Akt activation ([1]; listed as fibrillated preparations of Aβ): little effect

ADDL: Aβ-derived diffusible ligands, oligomer-enriched Aβ42 preparation (24 to 48 hr at 4° C.)
effect on PDK-stimulated Akt activity (GSK-3 substrate phosphorylation) ([1]; 5 μM (or doses up to 5 μM)): greatest interference
effect on PDK-stimulated Akt activity / Akt phosphorylation [1]: nearly eliminates
effect on PDK-stimulated Akt activity / Akt phosphorylation ([1]; listed as ADDL preparations): near total inhibition
relative effect of amyloid preparations (monomer, ADDL, fibril) on PDK-dependent Akt activation [1]: more potent inhibitors
relative effect of amyloid preparations (monomer, ADDL, fibril) on PDK-dependent Akt activation ([1]; listed as ADDL-containing Aβ preparations): additively more injurious
relative effect of amyloid preparations (monomer, ADDL, fibril) on PDK-dependent Akt activation ([1]; listed as ADDLs): more toxic; also recorded: significantly prevented; also recorded: significantly greater inhibition
PDK-stimulated SGK activity [2]: inhibited SGK activation

Insulin: insulin used to stimulate the Akt pathway
levels of p-Akt (Ser473) and Akt activity (p-GSK-3 α/β) (C2C12 myotubes; 0.1 μg/ml, 15 min): significantly increased

PTEN: Recombinant Phosphatase and Tensin Homolog, lipid phosphatase (R & D Systems)
PDK stimulation of Akt activity after preincubation of the kinase beads ([1]; preincubation 10.6 μg/ml, 15 min at 37° C., then washing): eliminated any stimulation of Akt activity
